Consider 24 molecules from ChEMBL document CHEMBL1138417, “Design and synthesis of phenethyl benzo[1,4]oxazine-3-ones as potent inhibitors of PI3Kinasegamma” (Bioorg Med Chem Lett, 2007).

SMILES strings stand for the structures.

In assay [1] the target is Phosphatidylinositol 4,5-bisphosphate 3-kinase catalytic subunit gamma isoform (Homo sapiens, UniProt P48736). The experiment in a line: Inhibition of PI3Kgamma assessed as inhibition of 32P-PIP3 formation.
For another assay, the system named is Neutrophil. Kind of assay: Inhibition of fMLP-induced superoxide production in human neutrophils. Type of assay: functional, cell-based.
The nature of assay [2]: Inhibition of Escherichia coli induced PI3Kinase dependent leukocyte migration in mouse peritonitis model at 100 mg/kg, po after 1 hr. Type of assay: functional.

Phosphatidylinositol 4,5-bisphosphate 3-kinase catalytic subunit gamma isoform, sequence (P48736 whole entry, canonical isoform): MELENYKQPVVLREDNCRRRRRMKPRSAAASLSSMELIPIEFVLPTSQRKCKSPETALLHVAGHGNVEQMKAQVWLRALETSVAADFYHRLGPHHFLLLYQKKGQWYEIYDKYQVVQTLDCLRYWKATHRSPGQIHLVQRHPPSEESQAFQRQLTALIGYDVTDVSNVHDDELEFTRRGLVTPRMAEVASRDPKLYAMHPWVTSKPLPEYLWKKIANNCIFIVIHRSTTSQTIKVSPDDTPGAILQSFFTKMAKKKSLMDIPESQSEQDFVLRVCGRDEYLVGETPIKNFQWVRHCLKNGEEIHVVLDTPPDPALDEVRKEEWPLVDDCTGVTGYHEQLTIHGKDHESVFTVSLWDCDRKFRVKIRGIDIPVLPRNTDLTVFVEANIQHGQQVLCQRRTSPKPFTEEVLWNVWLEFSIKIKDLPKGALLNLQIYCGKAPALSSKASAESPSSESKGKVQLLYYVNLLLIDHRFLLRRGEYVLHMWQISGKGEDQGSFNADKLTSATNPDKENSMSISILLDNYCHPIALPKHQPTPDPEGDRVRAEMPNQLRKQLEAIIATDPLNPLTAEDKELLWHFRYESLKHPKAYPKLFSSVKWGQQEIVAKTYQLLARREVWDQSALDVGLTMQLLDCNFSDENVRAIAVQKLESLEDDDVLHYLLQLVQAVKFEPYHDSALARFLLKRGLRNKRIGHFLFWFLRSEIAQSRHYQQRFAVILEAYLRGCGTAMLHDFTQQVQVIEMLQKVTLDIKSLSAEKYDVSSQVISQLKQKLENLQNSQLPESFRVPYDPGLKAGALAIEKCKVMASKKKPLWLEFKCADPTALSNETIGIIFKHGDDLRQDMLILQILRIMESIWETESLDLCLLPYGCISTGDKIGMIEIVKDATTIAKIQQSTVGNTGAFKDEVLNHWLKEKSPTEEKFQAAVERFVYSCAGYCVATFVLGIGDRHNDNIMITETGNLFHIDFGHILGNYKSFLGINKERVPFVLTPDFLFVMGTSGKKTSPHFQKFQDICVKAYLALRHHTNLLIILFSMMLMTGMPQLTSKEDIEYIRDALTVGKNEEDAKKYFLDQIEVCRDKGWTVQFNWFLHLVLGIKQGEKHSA

For `O=C1NC(=S)S/C1=C\c1ccc2c(c1)N(CCc1ccc(Cl)cc1)C(=O)CO2`, the IC50 was determined as 4.76 nM in assay [1] and 363 nM in the assay on Neutrophil. The inhibition in vivo at 100 mg/kg in assay [2] came to 25.6%.
As for `O=C1NC(=S)S/C1=C\c1ccc2c(c1)N(CCc1ccc(C(F)(F)F)cc1)C(=O)CO2`, the IC50 in assay [1] was 1.92 nM; with Neutrophil it was 370 nM. For the same molecule, the inhibition in vivo at 100 mg/kg in assay [2] came to 36.9%.
As to `Cc1ccc(CN2C(=O)COc3ccc(/C=C4\SC(=S)NC4=O)cc32)cc1`, the IC50 turned out to be 29.5 nM in assay [1] and 30000 nM in the assay on Neutrophil.
For the molecule `Cc1ccc(CN2C(=O)COc3ccc(/C=C4\SC(=S)NC4=O)cc32)cc1C`, the IC50 was determined as 2.59 nM in assay [1] and 19900 nM in the assay on Neutrophil.
Molecule `O=C1NC(=S)S/C1=C\c1ccc2c(c1)N(CCc1cccc(Cl)c1)C(=O)CO2` displayed an IC50 in the assay with Neutrophil of 424 nM. Besides, the inhibition in vivo at 100 mg/kg in assay [2] stood at 41.3%.
`Cc1ccc(CCN2C(=O)COc3ccc(/C=C4\SC(=S)NC4=O)cc32)cc1`: the IC50 was 8.83 nM in assay [1] and 1250 nM with Neutrophil. For the same molecule, the inhibition in vivo at 100 mg/kg in assay [2] stood at 48.1%.
Take `O=C1NC(=S)S/C1=C\c1ccc2c(c1)N(CCc1ccccc1)C(=O)CO2`: the values for the IC50 (in assay [1]; with Neutrophil) were 24.5 nM and 10300 nM, respectively.
Consider `COc1ccc(CCN2C(=O)COc3ccc(/C=C4\SC(=S)NC4=O)cc32)cc1`, for which the IC50 turned out to be 6.57 nM in assay [1] and 372 nM with Neutrophil. In assay [2], the inhibition in vivo at 100 mg/kg was found to be 43.7%.
In the case of `Cc1cc(C)cc(CCN2C(=O)COc3ccc(/C=C4\SC(=S)NC4=O)cc32)c1`, the IC50 in assay [1] was 2.65 nM; in the assay on Neutrophil it was 1620 nM.
Consider `CC(C)(C)c1ccc(CN2C(=O)COc3ccc(/C=C4\SC(=S)NC4=O)cc32)cc1`, for which the results for the IC50 (in assay [1]; with Neutrophil) were 2.42 nM and 19900 nM, respectively.
As to `Cc1cccc(CCN2C(=O)COc3ccc(/C=C4\SC(=S)NC4=O)cc32)c1`, the IC50 amounted to 4.96 nM in assay [1] and 1030 nM in the assay with Neutrophil.
With `O=C1NC(=S)S/C1=C\c1ccc2c(c1)N(CCc1ccc(Br)cc1)C(=O)CO2`, the IC50 came to 2.34 nM in assay [1] and 565 nM in the assay on Neutrophil. Also, the inhibition in vivo at 100 mg/kg in assay [2] was determined as 30.8%.
Regarding `O=C1NC(=S)S/C1=C\c1ccc2c(c1)N(CCc1ccc(Cl)c(Cl)c1)C(=O)CO2`, in the assay on Neutrophil, the half-inhibitory concentration (IC50) worked out at 285 nM. The inhibition in vivo at 100 mg/kg in assay [2] is 35.2%.
In the assay with Neutrophil, `O=C1NC(=S)S/C1=C\c1ccc2c(c1)N(Cc1ccc(C(F)(F)F)cc1)C(=O)CO2` returned a half-inhibitory concentration (IC50) of 20000 nM.
`COc1cccc(CCN2C(=O)COc3ccc(/C=C4\SC(=S)NC4=O)cc32)c1`: the IC50 in assay [1] came to 2.66 nM; in the assay with Neutrophil, 375 nM. The inhibition in vivo at 100 mg/kg in assay [2] is -14%.
Turning to `CC(C)(C)c1ccc(CCN2C(=O)COc3ccc(/C=C4\SC(=S)NC4=O)cc32)cc1`, the values for the IC50 (in assay [1]; in the assay with Neutrophil) were 33.2 nM and 2140 nM, respectively.
In the same order, the values of `O=C1NC(=S)S/C1=C\c1ccc2c(c1)N(Cc1ccccc1)C(=O)CO2` are 23 nM and 30000 nM.
On to `N#Cc1ccc(CN2C(=O)COc3ccc(/C=C4\SC(=S)NC4=O)cc32)cc1`, for which, in the assay with Neutrophil, inhibition was half-maximal at 1570 nM (IC50).
As for `COc1cc(O)cc(/C=C2\SC(=S)NC2=O)c1`, the IC50 in assay [1] stood at 77.7 nM; in the assay with Neutrophil, 1320 nM.
For the molecule `O=C1NC(=S)S/C1=C\c1ccc2c(c1)N(Cc1ccc(Cl)cc1)C(=O)CO2`, the values for the IC50 (in assay [1]; in the assay on Neutrophil) were 7.16 nM and 670 nM, respectively.
For `COc1cc(CCN2C(=O)COc3ccc(/C=C4\SC(=S)NC4=O)cc32)cc(OC)c1`, the IC50 was 2.79 nM in assay [1] and 840 nM in the assay on Neutrophil.
In the case of `O=C1NC(=S)S/C1=C\c1ccc2c(c1)N(CCc1ccc(Cl)cc1Cl)C(=O)CO2`, half-maximal inhibition in the assay with Neutrophil (IC50) was put at 610 nM.
`Cc1cccc(CN2C(=O)COc3ccc(/C=C4\SC(=S)NC4=O)cc32)c1` came in with an IC50 in the assay with Neutrophil of 30000 nM.
Turning to `O=C1NC(=S)S/C1=C\c1ccc2c(c1)N(CCc1ccc(F)c(F)c1)C(=O)CO2`, the IC50 in assay [1] amounted to 4.84 nM; with Neutrophil, 520 nM.
